pIC50: −log10 of the molar value.
Each compound was assayed against T1, human CB1 receptor (Homo sapiens, UniProt P21554) (assay: Cannabinoid Receptor-1 functional assay: inhibition of CP55940-induced [35S]GTPγS binding to membranes of CHO-K1 cells expressing human CB1). Conditions: 3 nM CP55940, [35S]GTPγS SPA, hCB1 membranes; read-out: IC50 value for antagonizing a CB1 receptor agonist.
T1 construct: expressed in transfected cells; membranes used
Type: biochemical
In short: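 Membranes (5 μg/well) from CHO-K1 cells stably expressing human CB1 incubated 1 hr at room temperature with 1 nM [35S]GTPγS, 3 nM CP55940 and test compound in HEPES pH 7.5 buffer with 1 μM GDP, saponin. Bound label read by SPA after 30 min with beads; IC50 by non-linear regression.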

T1 sequence (P21554 whole entry): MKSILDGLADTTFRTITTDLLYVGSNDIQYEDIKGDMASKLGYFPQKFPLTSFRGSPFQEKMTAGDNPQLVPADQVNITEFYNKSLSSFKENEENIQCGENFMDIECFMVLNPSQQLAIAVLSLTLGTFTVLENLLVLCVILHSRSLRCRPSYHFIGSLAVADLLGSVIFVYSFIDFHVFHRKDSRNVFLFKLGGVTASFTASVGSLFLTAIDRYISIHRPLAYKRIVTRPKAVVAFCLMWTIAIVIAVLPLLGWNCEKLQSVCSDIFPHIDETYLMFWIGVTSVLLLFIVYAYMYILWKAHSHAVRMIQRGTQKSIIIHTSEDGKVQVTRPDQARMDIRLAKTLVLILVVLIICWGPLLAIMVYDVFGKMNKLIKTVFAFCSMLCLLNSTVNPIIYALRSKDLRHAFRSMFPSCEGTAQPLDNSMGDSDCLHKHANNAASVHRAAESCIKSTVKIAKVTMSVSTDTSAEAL

Row | pIC50 | SMILES
1 | > 6.52 | O=C(c1nn(-c2ccccc2F)c(-c2ccc(Cl)cc2)c1Cc1nn[nH]n1)N1CCC(Oc2ccc(Cl)cc2)CC1 [[4.1], [1-(2-Fluoro-phenyl)-5-(4-chloro-phenyl)-4-(2H-tetrazol-5-ylmethyl)-1H-pyrazol-3-yl]-[4-(4-chlorophenoxy)-piperidin-1-yl]-methanone]
2 | > 6.52 | O=C(c1nn(-c2ccccc2F)c(-c2ccc(Cl)cc2)c1Cc1nn[nH]n1)N1CCC(c2ccccc2F)CC1 [[4.2], [1-(2-Fluoro-phenyl)-5-(4-chloro-phenyl)-4-(2H-tetrazol-5-ylmethyl)-1H-pyrazol-3-yl]-[4-(2-fluoro-phenyl)-piperidin-1-yl]-methanone]
3 | > 6.52 | O=C(O)Cc1c(C(=O)N2CCC(c3ccccc3F)CC2)nn(-c2ccccc2F)c1-c1ccc(Cl)cc1 [[4.4], {1-(2-Fluoro-phenyl)-5-(4-chloro-phenyl)-3-[4-(2-fluoro-phenyl)-piperidine-1-carbonyl]-1H-pyrazol-4-yl}-acetic acid]
